Results reported in patent US6784283B2, “Peptide antibiotics” (The University of British Columbia, priority 2000, dated 2004).
Starred links: 1 amine or outer side, 2 acyl side, 3 side chain; linkers in the order of their positions; H or OH if unused. Non-standard residues stand in square brackets, D forms with d. Residues, ends and D or L forms follow the SMILES beside them. *: point of attachment. Pentanoyl(2S-OH,3S-Me) = CC[C@H](C)[C@H](O)C(=O)*; X1 = C/C=C(/N[*:1])C(=O)[*:2]; dOrn = NCCC[C@@H](N)C(=O)O; Valol = CC(C)[C@@H](CO)N*

Tests used:
[1] = system: methicillin-resistant Staphylococcus aureus; assay: agar dilution antimicrobial assay (MIC); assay type: cell-based
Procedure: (§1) A solution of Bogorol A was prepared by dissolving 3 mg of e compound in 300 μL of dimethylsulfoxide (DMSO). Serial two-fold dilutions were prepared in DMSO, and 50 μL of each dilution was mixed with 5 mL of melted Mueller-Hinton agar to achieve a final Bogorol A concentration range of 200 to 0.48 μg/ml. After the agar solidified, standardized suspensions of the target organisms were inoculated onto the surface of the agar using a multipoint inoculator. The standardized suspensions were prepared in tryptic soy broth adjusted to a 1.0 McFarland turbidity standard. The plates were incubated over night at 37° C. Activity of Bogorol A was indicated by a lack of growth of any target organism at its point of inoculation.

Berkholderia cepacia = conditions: other target organisms tested (Berkholderia cepacia); agar dilution
Procedure: as §1

Escherichia coli = conditions: agar dilution
Procedure: as §1

Candida aibicans = conditions: other target organisms tested (Candida aibicans); agar dilution
Procedure: as §1

[2] = system: Stenotrophomonas maltophilia; conditions: agar dilution
Procedure: as §1

[3] = system: Drug Resistant Pseudomonas aeruginosa; conditions: other target organisms tested (Drug Resistant Pseudomonas aeruginosa); agar dilution
Procedure: as §1

[4] = system: vancomycin-resistant Enterococcus faecalis; conditions: agar dilution
Procedure: as §1

C/C=C(/NC(=O)[C@@H](O)[C@@H](C)CC)C(=O)N[C@@H](CC(C)C)C(=O)N[C@H](CCCN)C(=O)N[C@H](C(=O)N[C@H](C(=O)N[C@H](C(=O)N[C@H](CCCCN)C(=O)N[C@H](C(=O)N[C@@H](CC(C)C)C(=O)N[C@@H](CCCCN)C(=O)N[C@H](Cc1ccc(O)cc1)C(=O)N[C@H](CC(C)C)C(=O)N[C@H](CO)C(C)C)C(C)C)C(C)C)C(C)C)[C@@H](C)CC [Bogorol A] ({Pentanoyl(2S-OH,3S-Me)}-[X1]L[dOrn]IVV[dK]VLK[dY][dL]-Valol) was tested, and the “antimicrobial activity (in words)” value [1] was “active”, the “antimicrobial activity (in words)” value (Berkholderia cepacia) was “essentially inactive” and the “antimicrobial activity (in words)” value (Escherichia coli) was “moderately active”. For the same compound, the “antimicrobial activity (in words)” value (Candida aibicans) was “essentially inactive”, the “antimicrobial activity (in words)” value [2] was “moderately active” and the “antimicrobial activity (in words)” value [3] was “essentially inactive”. The “antimicrobial activity (in words)” value [4] was “active”.
